Reference: PMC6769516, “Apoptotic Effects of Drug Targeting Conjugates Containing Different GnRH Analogs on Colon Carcinoma Cells” (International Journal of Molecular Sciences, 2019)
Read-outs that look alike come from different tables or passages of the source. Non-standard residues stand in square brackets, D forms with d. Residues, ends and D or L forms follow the SMILES beside them. *: point of attachment. Daunorubicin(13-NOCH2CO) = COc1cccc2c1C(=O)c1c(O)c3c(c(O)c1C2=O)C[C@@](O)(C(C)=NOCC(=O)*)C[C@@H]3O[C@H]1C[C@H](N)[C@H](O)[C@H](C)O1; pGlu = O=C1CC[C@@H](C(=O)O)N1; Butyryl = CCCC(=O)*

Test system: HT-29 cell line
Assay: Cell viability assay, impedance-based xCELLigence SP System
Parameters: species or system human
Conditions: for IC50: Delta CI normalized to control, sigmoidal fit, mean ± SD of three parallel measurements, read-out: IC50 of cytotoxicity; for Viability (control = 100 %): conjugate at 10^-4 M, mean of three parallels ± SD
Protocol: The effects of different GnRH conjugates on HT-29 cell growth were measured by the xCELLigence SP System (ACEA Biosciences, San Diego, CA, USA), which allows cell viability to be detected in real-time via impedance readouts. The experimental setup and the procedure were almost identical to the one described in more detail in our previous works. The continuous monitoring of cell viability provides the opportunity to determine the difference in the time-dependent cellular response for the various GnRH conjugates and to select the optimal time points to conduct more specific end-point assays (e.g., apoptosis assays) for further investigating the mechanism of antitumor activity. […] CI is a dimensionless value and is calculated from the impedance of the well with cells and the background impedance of the well without cells.
Briefly, the main steps of the experiment are the following: (i) the background measurement, in which 80 µL complete cell culture medium was loaded to each well of an E-plate in order to establish a constant CI value; (ii) the cell monitoring step, in which 100 µL of cell suspension (10^5 cell/mL) was added to each well followed by an incubation period of 24 h; and (iii) the compound activity monitoring step, in which test-conjugates (final concentration range: 32 nM–100 µM) were added to the cells at the plateau phase and the CI change was recorded for a further 72 h at 10 kHz. Stock solutions (5 × 10^−3 M) were prepared from the test-conjugates in distilled water and then further diluted to 320 nM–1 mM in the complete cell culture medium. The wells treated with an adequate volume of pure cell culture medium represented the control. Triplicate wells were used for each treatment for statistical analysis.
Delta CI values—a difference of CI value at the time point of cell inoculation and CI value at a given time point—were calculated by RTCA 2.0 software (ACEA Biosciences, San Diego, CA, USA) integrated into the xCELLigence SP System to characterize the time-dependent antiproliferative/cytotoxic effect of the different GnRH conjugates. IC50 values were used to compare the effect of the conjugates.

Row | Structure (SMILES) | IC50 (24 h incubation) | IC50 (48 h incubation) | IC50 (72 h incubation) | Viability (control = 100 %) (48 h) | Viability (control = 100 %) (72 h) | Viability (control = 100 %) (24 h)
1 | COc1cccc2c1C(=O)c1c(O)c3c(c(O)c1C2=O)C[C@@](O)(C(C)=NOCC(=O)NCCCC[C@@H](NC(=O)[C@H](Cc1c[nH]cn1)NC(=O)[C@H](CO)NC(=O)[C@H](Cc1c[nH]c2ccccc12)NC(=O)[C@H](Cc1c[nH]cn1)NC(=O)[C@@H]1CCC(=O)N1)C(=O)N[C@@H](Cc1c[nH]c2ccccc12)C(=O)N[C@@H](Cc1ccc(O)cc1)C(=O)N1CCC[C@H]1C(=O)NCC(N)=O)C[C@@H]3O[C@H]1C[C@H](N)[C@H](O)[C@H](C)O1 [II-[^4Ser,^6D-Lys(Dau)], GnRH-II-[^4Ser,^6D-Lys(Dau=Aoa)]] ([pGlu]HWSH[dK](Daunorubicin(13-NOCH2CO))WYPG-NH2) | 58.9 ± 10 µM | 24.2 ± 0.86 µM | 19.7 ± 2.51 µM | 16.91 ±1.91% | 20.43 ± 2.66% | 
2 | CCCC(=O)NCCCC[C@H](NC(=O)[C@H](Cc1c[nH]c2ccccc12)NC(=O)[C@H](Cc1c[nH]cn1)NC(=O)[C@@H]1CCC(=O)N1)C(=O)N[C@@H](Cc1ccc(O)cc1)C(=O)N[C@H](CCCCNC(=O)CON=C(C)[C@]1(O)Cc2c(O)c3c(c(O)c2[C@@H](O[C@H]2C[C@H](N)[C@H](O)[C@H](C)O2)C1)C(=O)c1c(OC)cccc1C3=O)C(=O)N[C@@H](CC(C)C)C(=O)N[C@@H](CCCNC(=N)N)C(=O)N1CCC[C@H]1C(=O)NCC(N)=O [I-[^4Lys(Bu),^6D-Lys(Dau)], GnRH-I-[^4Lys(Bu),^6D-Lys(Dau=Aoa)]] ([pGlu]HWK(Butyryl)Y[dK](Daunorubicin(13-NOCH2CO))LRPG-NH2) | > 100 µM | 18.7 ± 1.19 µM | 16.2 ± 1.75 µM | 15.50 ± 0.55% | 5.31 ± 1.27% | 86.69 ± 4.84%
3 | COc1cccc2c1C(=O)c1c(O)c3c(c(O)c1C2=O)C[C@@](O)(C(C)=NOCC(=O)NCCCC[C@@H](NC(=O)[C@H](Cc1ccc(O)cc1)NC(=O)[C@H](CO)NC(=O)[C@H](Cc1c[nH]c2ccccc12)NC(=O)[C@H](Cc1c[nH]cn1)NC(=O)[C@@H]1CCC(=O)N1)C(=O)N[C@@H](CC(C)C)C(=O)N[C@@H](CCCNC(=N)N)C(=O)N1CCC[C@H]1C(=O)NCC(N)=O)C[C@@H]3O[C@H]1C[C@H](N)[C@H](O)[C@H](C)O1 [I-[^4Ser,^6D-Lys(Dau)], GnRH-I-[^4Ser,^6D-Lys(Dau=Aoa)]] | > 100 µM | 60.2 ± 3.5 µM | 21.9 ± 1.54 µM | 43.82 ± 1.18% |  | 
4 | CCCC(=O)NCCCC[C@H](NC(=O)[C@H](Cc1c[nH]c2ccccc12)NC(=O)[C@H](Cc1c[nH]cn1)NC(=O)[C@@H]1CCC(=O)N1)C(=O)N[C@@H](Cc1c[nH]cn1)C(=O)N[C@H](CCCCNC(=O)CON=C(C)[C@]1(O)Cc2c(O)c3c(c(O)c2[C@@H](O[C@H]2C[C@H](N)[C@H](O)[C@H](C)O2)C1)C(=O)c1c(OC)cccc1C3=O)C(=O)N[C@@H](Cc1c[nH]c2ccccc12)C(=O)N[C@@H](Cc1ccc(O)cc1)C(=O)N1CCC[C@H]1C(=O)NCC(N)=O [II-[^4Lys(Bu),^6D-Lys(Dau)], GnRH-II-[^4Lys(Bu),^6D-Lys(Dau=Aoa)]] ([pGlu]HWK(Butyryl)H[dK](Daunorubicin(13-NOCH2CO))WYPG-NH2) | 65.8 ± 3.89 µM | 69.7 ± 4.12 µM | 48.1 ± 6.89 µM | 19.40 ± 2.77% | 24.31 ± 4.20% | 35.64 ± 3.41%
